Reference: PubChem BioAssay AID493040 (Abbott Labs, 2011)
pKi: −log10 of the molar value. The source made the active and inactive calls. No rule for the calls is given here.

How the values were obtained:
Experiment in all cases: PubChem AID 493040
[1] = biological target: Serine/threonine-protein kinase PLK3 (Homo sapiens) (UniProt Q9H4B4); conditions: kinase panel binding, pKi
[2] = biological target: Rho-associated protein kinase 2 (Homo sapiens) (UniProt O75116); conditions: kinase panel binding, pKi; ROCK2
[3] = biological target: Serine/threonine-protein kinase Sgk2 (Homo sapiens) (UniProt Q9HBY8); conditions: kinase panel binding, pKi; SGK
[4] = biological target: Epidermal growth factor receptor (Homo sapiens) (UniProt P00533); conditions: kinase panel binding, pKi; EGFR
Chain of Epidermal growth factor receptor (Homo sapiens) (P00533 whole entry, looked up): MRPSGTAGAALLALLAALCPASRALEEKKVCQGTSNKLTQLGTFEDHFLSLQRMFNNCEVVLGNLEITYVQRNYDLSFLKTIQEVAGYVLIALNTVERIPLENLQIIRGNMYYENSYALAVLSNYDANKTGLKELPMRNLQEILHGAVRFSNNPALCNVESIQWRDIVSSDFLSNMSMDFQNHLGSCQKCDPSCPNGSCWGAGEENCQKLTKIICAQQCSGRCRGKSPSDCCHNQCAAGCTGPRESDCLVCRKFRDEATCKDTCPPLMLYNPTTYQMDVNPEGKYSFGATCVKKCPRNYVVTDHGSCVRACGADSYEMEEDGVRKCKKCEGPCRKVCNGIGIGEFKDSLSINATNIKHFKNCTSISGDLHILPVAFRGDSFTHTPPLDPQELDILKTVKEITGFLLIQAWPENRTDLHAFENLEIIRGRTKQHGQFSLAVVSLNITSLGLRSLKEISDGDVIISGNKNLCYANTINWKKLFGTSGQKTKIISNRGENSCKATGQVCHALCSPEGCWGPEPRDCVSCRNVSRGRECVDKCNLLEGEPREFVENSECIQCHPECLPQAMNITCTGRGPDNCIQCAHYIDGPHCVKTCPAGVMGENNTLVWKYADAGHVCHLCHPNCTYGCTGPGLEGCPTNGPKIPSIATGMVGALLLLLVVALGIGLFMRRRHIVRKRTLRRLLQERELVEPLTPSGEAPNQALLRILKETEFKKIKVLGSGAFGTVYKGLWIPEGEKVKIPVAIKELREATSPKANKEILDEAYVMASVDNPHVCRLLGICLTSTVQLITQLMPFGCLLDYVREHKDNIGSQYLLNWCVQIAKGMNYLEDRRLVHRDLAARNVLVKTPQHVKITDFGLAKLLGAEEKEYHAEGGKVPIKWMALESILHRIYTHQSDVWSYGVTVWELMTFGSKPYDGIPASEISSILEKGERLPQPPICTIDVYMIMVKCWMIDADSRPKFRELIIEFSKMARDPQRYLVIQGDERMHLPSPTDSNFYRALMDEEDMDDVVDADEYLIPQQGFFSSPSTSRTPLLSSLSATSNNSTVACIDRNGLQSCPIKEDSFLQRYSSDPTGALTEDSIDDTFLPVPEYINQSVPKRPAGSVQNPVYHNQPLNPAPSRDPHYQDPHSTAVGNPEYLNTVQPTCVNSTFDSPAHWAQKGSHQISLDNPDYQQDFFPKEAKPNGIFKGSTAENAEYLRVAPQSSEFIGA

Chain of Rho-associated protein kinase 2 (Homo sapiens) (O75116 whole entry, looked up): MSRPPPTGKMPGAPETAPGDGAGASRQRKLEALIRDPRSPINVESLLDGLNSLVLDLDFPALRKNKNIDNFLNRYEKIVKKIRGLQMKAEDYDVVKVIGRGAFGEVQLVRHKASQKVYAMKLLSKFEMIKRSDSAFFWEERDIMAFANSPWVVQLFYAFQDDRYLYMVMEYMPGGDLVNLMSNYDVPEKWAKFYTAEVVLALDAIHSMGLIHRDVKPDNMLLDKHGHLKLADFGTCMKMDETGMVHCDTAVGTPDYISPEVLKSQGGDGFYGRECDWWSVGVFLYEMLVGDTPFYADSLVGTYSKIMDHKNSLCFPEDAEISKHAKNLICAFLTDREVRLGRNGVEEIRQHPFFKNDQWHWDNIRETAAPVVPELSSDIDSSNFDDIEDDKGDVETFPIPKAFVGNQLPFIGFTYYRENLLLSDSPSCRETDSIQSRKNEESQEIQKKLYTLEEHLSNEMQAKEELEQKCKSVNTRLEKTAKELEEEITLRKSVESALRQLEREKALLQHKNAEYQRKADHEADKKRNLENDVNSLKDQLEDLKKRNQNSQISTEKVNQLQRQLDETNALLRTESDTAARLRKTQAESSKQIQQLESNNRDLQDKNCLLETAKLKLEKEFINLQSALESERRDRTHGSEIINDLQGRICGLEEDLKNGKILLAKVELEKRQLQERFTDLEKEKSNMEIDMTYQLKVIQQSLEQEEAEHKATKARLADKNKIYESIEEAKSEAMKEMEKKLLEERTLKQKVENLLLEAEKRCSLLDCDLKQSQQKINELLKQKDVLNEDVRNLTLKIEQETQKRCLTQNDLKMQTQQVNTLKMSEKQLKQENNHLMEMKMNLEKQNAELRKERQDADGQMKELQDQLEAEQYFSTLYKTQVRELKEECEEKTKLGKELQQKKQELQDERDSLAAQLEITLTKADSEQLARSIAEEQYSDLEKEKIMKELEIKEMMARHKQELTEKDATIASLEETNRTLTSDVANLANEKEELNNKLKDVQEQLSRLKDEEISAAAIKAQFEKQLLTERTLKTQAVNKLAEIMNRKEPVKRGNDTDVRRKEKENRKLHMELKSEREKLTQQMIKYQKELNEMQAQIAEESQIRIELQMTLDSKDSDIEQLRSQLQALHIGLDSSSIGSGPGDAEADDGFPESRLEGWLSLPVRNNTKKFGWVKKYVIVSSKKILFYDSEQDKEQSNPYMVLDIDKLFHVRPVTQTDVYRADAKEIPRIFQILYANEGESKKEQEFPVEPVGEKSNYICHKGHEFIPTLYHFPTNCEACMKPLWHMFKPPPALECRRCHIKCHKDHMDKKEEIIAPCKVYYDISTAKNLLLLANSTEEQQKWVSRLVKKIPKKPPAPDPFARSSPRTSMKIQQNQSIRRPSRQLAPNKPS
Chain of Serine/threonine-protein kinase PLK3 (Homo sapiens) (Q9H4B4 whole entry, looked up): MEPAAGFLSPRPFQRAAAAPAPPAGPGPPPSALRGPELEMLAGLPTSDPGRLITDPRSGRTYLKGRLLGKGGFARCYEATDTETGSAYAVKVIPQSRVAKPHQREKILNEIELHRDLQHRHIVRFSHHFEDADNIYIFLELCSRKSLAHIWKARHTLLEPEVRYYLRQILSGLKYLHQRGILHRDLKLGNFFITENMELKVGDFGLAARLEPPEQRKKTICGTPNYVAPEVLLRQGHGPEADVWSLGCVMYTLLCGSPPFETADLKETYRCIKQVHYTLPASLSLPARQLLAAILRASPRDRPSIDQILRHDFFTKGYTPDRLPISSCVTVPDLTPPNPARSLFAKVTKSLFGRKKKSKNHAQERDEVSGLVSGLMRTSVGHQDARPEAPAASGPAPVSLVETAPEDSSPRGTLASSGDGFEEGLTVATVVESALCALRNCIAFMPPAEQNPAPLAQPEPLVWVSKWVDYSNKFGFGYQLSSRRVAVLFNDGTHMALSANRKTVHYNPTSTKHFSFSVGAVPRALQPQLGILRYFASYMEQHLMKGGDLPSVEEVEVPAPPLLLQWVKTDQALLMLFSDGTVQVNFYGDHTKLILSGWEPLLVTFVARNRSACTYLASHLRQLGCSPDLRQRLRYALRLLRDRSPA
Chain of Serine/threonine-protein kinase Sgk2 (Homo sapiens) (Q9HBY8 whole entry, looked up): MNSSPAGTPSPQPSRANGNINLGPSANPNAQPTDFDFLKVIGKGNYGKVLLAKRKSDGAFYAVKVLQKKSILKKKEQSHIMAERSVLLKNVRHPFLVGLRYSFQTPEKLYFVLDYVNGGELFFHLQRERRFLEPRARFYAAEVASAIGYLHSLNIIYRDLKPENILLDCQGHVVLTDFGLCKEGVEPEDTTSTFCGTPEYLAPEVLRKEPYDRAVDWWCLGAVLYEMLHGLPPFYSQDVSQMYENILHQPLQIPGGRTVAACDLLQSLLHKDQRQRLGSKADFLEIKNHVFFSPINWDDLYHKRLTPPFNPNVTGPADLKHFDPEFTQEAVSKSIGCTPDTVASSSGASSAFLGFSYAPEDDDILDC

Compound: COc1cc2ncn(-c3cc(OCc4ccccc4C(F)(F)F)c(C(N)=O)s3)c2cc1OC
- pKi [1]: 8.10
- Ki [2]: > 7940 nM (inactive)
- Ki [3]: > 10000 nM (inactive)
- pKi [4]: 6.60
